Measurements taken from the NIST ThermoML archive (doi:10.1016/j.fluid.2010.01.027).

Experiment: wn = mass fraction of the nth substance listed
Settings: Gas, sonar gas analyzer

FC(F)(F)C(F)(F)C(F)(F)F [octafluoropropane] + FC(F)(F)C(F)(F)C(F)(F)C(F)(F)F
speed of sound [m/s]
Settings | w1 = 0.397 | w1 = 0.83
248.2 K, 10 kPa | – | 105.12
248.2 K, 13 kPa | – | 105.03
248.2 K, 20 kPa | – | 104.84
248.2 K, 27 kPa | – | 104.58
248.2 K, 30 kPa | – | 104.45
248.2 K, 33 kPa | – | 104.36
248.2 K, 40 kPa | – | 104.12
248.2 K, 47 kPa | – | 103.84
248.2 K, 50 kPa | – | 103.75
248.2 K, 53 kPa | – | 103.57
248.2 K, 60 kPa | – | 103.27
248.2 K, 67 kPa | – | 103.07
259.2 K, 10 kPa | 102.59 | 107.4
259.2 K, 20 kPa | 102.16 | 107.18
259.2 K, 30 kPa | 101.68 | 106.95
259.2 K, 50 kPa | 101.06 | 106.3
259.2 K, 70 kPa | 100.12 | 105.81
259.2 K, 100 kPa | – | 104.56
259.2 K, 150 kPa | – | 102.68
259.2 K, 200 kPa | – | 101.95
271.3 K, 10 kPa | – | 109.58
271.3 K, 20 kPa | – | 109.17
271.3 K, 30 kPa | – | 108.68
271.3 K, 50 kPa | – | 107.95
271.3 K, 70 kPa | – | 107.66
271.3 K, 100 kPa | – | 106.4
271.3 K, 150 kPa | – | 104.9
271.3 K, 200 kPa | – | 103.44
271.3 K, 250 kPa | – | 102.59
271.4 K, 10 kPa | 104.64 | –
271.4 K, 20 kPa | 104.3 | –
271.4 K, 30 kPa | 103.82 | –
271.4 K, 50 kPa | 103.1 | –
271.4 K, 70 kPa | 102.4 | –
271.4 K, 100 kPa | 101.14 | –
271.4 K, 150 kPa | 99.12 | –
283.1 K, 10 kPa | 106.56 | 112.12
283.1 K, 20 kPa | 106.36 | 111.72
283.1 K, 30 kPa | 105.98 | 111.47
283.1 K, 50 kPa | 105.5 | 111.19
283.1 K, 70 kPa | 104.76 | 110.59
283.1 K, 100 kPa | 103.71 | 109.75
283.1 K, 150 kPa | 101.86 | 108.4
283.1 K, 200 kPa | 100.08 | 106.92
283.1 K, 250 kPa | – | 105.34
283.1 K, 297 kPa | – | 103.72
283.1 K, 350 kPa | – | 101.99
283.1 K, 400 kPa | – | 100.1
294 K, 10 kPa | 109.01 | –
294 K, 20 kPa | 108.7 | –
294 K, 30 kPa | 108.4 | –
294 K, 50 kPa | 107.67 | –
294 K, 70 kPa | 107.07 | –
294 K, 100 kPa | 106.22 | –
294 K, 150 kPa | 104.61 | –
294 K, 200 kPa | 103.01 | –
294.1 K, 10 kPa | – | 114.96
294.1 K, 20 kPa | – | 114.62
294.1 K, 30 kPa | – | 114.35
294.1 K, 50 kPa | – | 113.75
294.1 K, 70 kPa | – | 113.21
294.1 K, 100 kPa | – | 112.3
294.1 K, 150 kPa | – | 111
294.1 K, 200 kPa | – | 109.85
301.4 K, 10 kPa | – | 116.15
301.4 K, 20 kPa | – | 116.05
301.4 K, 30 kPa | – | 115.78
301.4 K, 50 kPa | – | 115.29
301.4 K, 70 kPa | – | 114.72
301.4 K, 100 kPa | – | 114.03
301.4 K, 150 kPa | – | 112.72
301.4 K, 200 kPa | – | 111.59
302.1 K, 10 kPa | 110.14 | –
302.1 K, 20 kPa | 109.74 | –
302.1 K, 30 kPa | 109.67 | –
302.1 K, 50 kPa | 109.29 | –
302.1 K, 70 kPa | 108.73 | –
302.1 K, 100 kPa | 107.89 | –
